Values joined by “and” are separate entries in the source; they are usually repeats but may differ in a detail not shown here. Equal values may be shown once. Records with an inconclusive call do not appear.
Test system: CD8F1 mice, subcutaneous mammary adenocarcinoma, T/C%
Test: NCI In Vivo Anticancer Drug Screen. Data for tumor model Mammary Adenocarcinoma CD8F1 (subcutaneous) in CD8F1
Conditions: higher = larger tumour
Procedure, shortened: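 Mice carrying transplanted tumors received test compound, and survival or tumor size was recorded. Each value is the treated-group measurement divided by the corresponding measurement in vehicle-dosed controls.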

[1] = endpoint: median tumor weight change, dose: 250.0 mg/kg/injection, schedule: Q01DX001 (ip), vehicle: Klucel (hydroxypropylcellulose) (HPC)
[2] = endpoint: median tumor weight change, dose: 16.0 mg/kg/injection, schedule: Q01DX001 (ip), vehicle: saline
[3] = endpoint: median tumor weight change, dose: 62.5 mg/kg/injection, schedule: Q01DX001 (ip), vehicle: suspension in saline
[4] = endpoint: median tumor weight change, dose: 125.0 mg/kg/injection, schedule: Q01DX001 (ip), vehicle: saline
[5] = endpoint: median tumor weight change, dose: 125.0 mg/kg/injection, schedule: Q01DX001 (ip), vehicle: suspension in saline
[6] = endpoint: median tumor weight change, dose: 125.0 mg/kg/injection, schedule: Q01DX001 (ip), vehicle: saline with Tween-80
[7] = endpoint: median tumor weight (est.), dose: 12.5 mg/kg/injection, schedule: Q07DX005 (ip), vehicle: saline with Tween-80
[8] = endpoint: median tumor weight (est.), dose: 25.0 mg/kg/injection, schedule: Q07DX005 (ip), vehicle: saline with Tween-80
[9] = endpoint: median tumor weight (est.), dose: 50.0 mg/kg/injection, schedule: Q07DX005 (ip), vehicle: saline with Tween-80
[10] = endpoint: median tumor weight (est.), dose: 100.0 mg/kg/injection, schedule: Q07DX005 (ip), vehicle: saline with Tween-80
[11] = endpoint: median tumor weight (est.), dose: 200.0 mg/kg/injection, schedule: Q07DX005 (ip), vehicle: saline with Tween-80

What does the source list for `COC1CC(C)C(OC)c2cc(O)cc(c2O)NC(=O)/C(C)=C/C=C\C(C)C(OC(N)=O)/C(C)=C\C(C)C1OC` (configuration not stated)?
T/C (endpoint: median tumor weight change, dose: 6.25 mg/kg/injection, schedule: Q01DX001 (ip), vehicle: saline + Tween-80 + alcohol): 87 % of control; T/C (endpoint: median tumor weight change, dose: 12.5 mg/kg/injection, schedule: Q01DX001 (ip), vehicle: saline + Tween-80 + alcohol): 88 % of control; T/C (endpoint: median tumor weight change, dose: 25.0 mg/kg/injection, schedule: Q01DX001 (ip), vehicle: saline + Tween-80 + alcohol): 87 % of control

What does the source list for `C[Si](C)(C)OSc1ccccc1[N+](=O)[O-]`?
T/C (endpoint: median tumor weight change, dose: 125.0 mg/kg/injection, schedule: Q01DX001 (ip), vehicle: Klucel (hydroxypropylcellulose) (HPC)): 158 % of control; T/C [1]: 120 % of control; T/C (endpoint: median tumor weight change, dose: 500.0 mg/kg/injection, schedule: Q01DX001 (ip), vehicle: Klucel (hydroxypropylcellulose) (HPC)): 93 % of control; T/C (endpoint: median tumor weight change, dose: 1000.0 mg/kg/injection, schedule: Q01DX001 (ip), vehicle: Klucel (hydroxypropylcellulose) (HPC)): 120 % of control; T/C (endpoint: median tumor weight change, dose: 2000.0 mg/kg/injection, schedule: Q01DX001 (ip), vehicle: Klucel (hydroxypropylcellulose) (HPC)): 97 % of control

What does the source list for `Oc1cc2c3c(c1)c1cc4c(cc1c[n+]3CC2)OCO4`?
T/C (endpoint: median tumor weight (est.), dose: 6.25 mg/kg/injection, schedule: Q07DX005 (ip), vehicle: water): 81 % of control; T/C (endpoint: median tumor weight (est.), dose: 12.5 mg/kg/injection, schedule: Q07DX005 (ip), vehicle: water): 83 % of control; T/C (endpoint: median tumor weight (est.), dose: 25.0 mg/kg/injection, schedule: Q07DX005 (ip), vehicle: water): 85 % of control; T/C (endpoint: median tumor weight (est.), dose: 50.0 mg/kg/injection, schedule: Q07DX005 (ip), vehicle: water): 94 % of control; T/C (endpoint: median tumor weight (est.), dose: 100.0 mg/kg/injection, schedule: Q07DX005 (ip), vehicle: water): 78 % of control

How did the T/C (endpoint: median tumor weight (est.), dose: 3.12 mg/kg/injection, schedule: Q07DX005 (ip), vehicle: suspension in saline) turn out when `CN(N=O)C(N)=O` was run?
Its T/C is 156 % of control.

And the T/C (endpoint: median tumor weight (est.), dose: 12.5 mg/kg/injection, schedule: Q07DX005 (ip), vehicle: saline)?
Its T/C is 103 % of control.

What about the T/C (endpoint: median tumor weight (est.), dose: 12.5 mg/kg/injection, schedule: Q07DX005 (ip), vehicle: suspension in saline) of the same molecule?
Its T/C is 104 % of control.

What about the T/C (endpoint: median tumor weight (est.), dose: 25.0 mg/kg/injection, schedule: Q07DX005 (ip), vehicle: saline) of the same molecule?
The T/C was 81 % of control.

What about the T/C (endpoint: median tumor weight (est.), dose: 25.0 mg/kg/injection, schedule: Q07DX005 (ip), vehicle: suspension in saline) of the same molecule?
The T/C was 100 % of control.

And the T/C (endpoint: median tumor weight (est.), dose: 50.0 mg/kg/injection, schedule: Q07DX005 (ip), vehicle: saline)?
The T/C was 39 % of control.

What about the T/C (endpoint: median tumor weight (est.), dose: 50.0 mg/kg/injection, schedule: Q07DX005 (ip), vehicle: suspension in saline) of the same molecule?
The T/C was 31 % of control.

And the T/C (endpoint: median tumor weight change, dose: 15.62 mg/kg/injection, schedule: Q01DX001 (ip), vehicle: Klucel (hydroxypropylcellulose) (HPC))?
Its T/C is 66 % of control.

And the T/C [2]?
Its T/C is 54 % of control.

What about the T/C (endpoint: median tumor weight change, dose: 31.0 mg/kg/injection, schedule: Q01DX001 (ip), vehicle: saline) of the same molecule?
The T/C was 29 % of control.

What about the T/C (endpoint: median tumor weight change, dose: 31.25 mg/kg/injection, schedule: Q01DX001 (ip), vehicle: Klucel (hydroxypropylcellulose) (HPC)) of the same molecule?
The T/C was 67 % of control.

And the T/C (endpoint: median tumor weight change, dose: 31.25 mg/kg/injection, schedule: Q01DX001 (ip), vehicle: suspension in saline)?
The T/C was 72 % of control.

What about the T/C (endpoint: median tumor weight change, dose: 62.0 mg/kg/injection, schedule: Q01DX001 (ip), vehicle: saline) of the same molecule?
Its T/C is 38 % of control.

And the T/C (endpoint: median tumor weight change, dose: 62.5 mg/kg/injection, schedule: Q01DX001 (ip), vehicle: Klucel (hydroxypropylcellulose) (HPC))?
The T/C was 14 % of control.

And the T/C [3]?
The T/C was 57 % of control.

What about the T/C [4] of the same molecule?
Its T/C is -59 % of control.

And the T/C [5]?
Its T/C is -2 % of control.

Which results are given for `Nc1ccc(S(N)(=O)=O)cc1`?
T/C (endpoint: median tumor weight change, dose: 62.5 mg/kg/injection, schedule: Q01DX001 (ip), vehicle: saline with Tween-80): 112 % of control; T/C [6]: 110 % of control; T/C (endpoint: median tumor weight change, dose: 250.0 mg/kg/injection, schedule: Q01DX001 (ip), vehicle: saline with Tween-80): 88 % of control; T/C (endpoint: median tumor weight change, dose: 500.0 mg/kg/injection, schedule: Q01DX001 (ip), vehicle: saline with Tween-80): 64 % of control; T/C (endpoint: median tumor weight change, dose: 1000.0 mg/kg/injection, schedule: Q01DX001 (ip), vehicle: saline with Tween-80): 124 % of control

What does the source list for `O=C1N[C@@H]2C(=C[C@H](O)[C@@H](O)[C@H]2O)c2cc3c(c(O)c21)OCO3`?
T/C (endpoint: median tumor weight change, dose: 3.12 mg/kg/injection, schedule: Q01DX001 (ip), vehicle: saline with Tween-80): 75 % of control; T/C (endpoint: median tumor weight change, dose: 6.25 mg/kg/injection, schedule: Q01DX001 (ip), vehicle: saline with Tween-80): 90 % of control; T/C (endpoint: median tumor weight change, dose: 12.5 mg/kg/injection, schedule: Q01DX001 (ip), vehicle: saline with Tween-80): 60 % of control

For `C/C=C/C=C/c1cc2cc3c(c(O)c2c(=O)[nH]1)C1(CC3)C(O)=c2c(=O)c3c(=O)cc(OC)c(=O)c=3c(=O)c2=C1O` (configuration not stated), which T/C (endpoint: median tumor weight change, dose: 2.5 mg/kg/injection, schedule: Q01DX001 (ip), vehicle: DMSO) is on record?
Its T/C is 106 % of control.

And the T/C (endpoint: median tumor weight change, dose: 5.0 mg/kg/injection, schedule: Q01DX001 (ip), vehicle: DMSO)?
Its T/C is 79 % of control.

`CC[C@@]1(O)C[C@H](OC2CC(N(C)C)C(OC3CC(O)C(OC4CC(O)C(O)C(C)O4)C(C)O3)C(C)O2)c2c(cc3c(c2O)C(=O)c2c(O)ccc(O)c2C3=O)[C@H]1C(=O)OC` (some centres not stated) was tested. Which T/C (endpoint: median tumor weight (est.), dose: 0.75 mg/kg/injection, schedule: Q07DX005 (ip), vehicle: other) did it give?
The T/C was 122 % of control.

And the T/C (endpoint: median tumor weight (est.), dose: 3.0 mg/kg/injection, schedule: Q07DX005 (ip), vehicle: other)?
Its T/C is 84 % of control.

For `C=CCNc1nc2c(s1)CCc1cc(OC)c(OC)cc1-2`, which T/C [7] is on record?
Its T/C is 65 % of control.

And the T/C [8]?
The T/C was 44 % of control.

What about the T/C [9] of the same molecule?
Its T/C is 55 % of control.

What about the T/C [10] of the same molecule?
Its T/C is 74 % of control.

And the T/C [11]?
Its T/C is 81 % of control.

`Cc1ccc2c(c1)N=C(Nc1ccccc1)N=S2(C)=O` (configuration not stated) was tested. Which T/C (endpoint: median tumor weight change, dose: 7.81 mg/kg/injection, schedule: Q01DX001 (ip), vehicle: saline with Tween-80) did it give?
The T/C was 115 % of control.

And the T/C (endpoint: median tumor weight change, dose: 15.62 mg/kg/injection, schedule: Q01DX001 (ip), vehicle: saline with Tween-80)?
The T/C was 121 % of control.

And the T/C (endpoint: median tumor weight change, dose: 31.25 mg/kg/injection, schedule: Q01DX001 (ip), vehicle: saline with Tween-80)?
Its T/C is 67 % of control.

And the T/C [6]?
Its T/C is 93 % of control.

With `C/C(=N/NC(N)=S)c1ccc2ccccc2c1` as the molecule, how does the T/C (endpoint: median tumor weight (est.), dose: 3.12 mg/kg/injection, schedule: Q07DX005 (ip), vehicle: saline with Tween-80) read?
Its T/C is 152 % of control.

And the T/C (endpoint: median tumor weight (est.), dose: 6.25 mg/kg/injection, schedule: Q07DX005 (ip), vehicle: saline with Tween-80)?
The T/C was 95 % of control and 100 % of control.

And the T/C [7]?
Its T/C is 69 % of control and 72 % of control.

What does the source list for `O=C(C1CO1)C(Cl)(Cl)Cl` (configuration not stated)?
T/C (endpoint: median tumor weight change, dose: 4.0 mg/kg/injection, schedule: Q01DX001 (ip), vehicle: saline): 81 % of control; T/C (endpoint: median tumor weight change, dose: 8.0 mg/kg/injection, schedule: Q01DX001 (ip), vehicle: saline): 72 % of control; T/C [2]: 68 % of control; T/C [4]: 34 % of control

For `CC(=O)CC(c1ccccc1)c1c(O)c2ccccc2oc1=O` (configuration not stated), which T/C (endpoint: median tumor weight change, dose: 0.01 mg/kg/injection, schedule: Q01DX001 (ip), vehicle: Klucel (hydroxypropylcellulose) (HPC)) is on record?
Its T/C is 183 % of control.

What about the T/C (endpoint: median tumor weight change, dose: 0.02 mg/kg/injection, schedule: Q01DX001 (ip), vehicle: Klucel (hydroxypropylcellulose) (HPC)) of the same molecule?
Its T/C is 157 % of control.

And the T/C (endpoint: median tumor weight change, dose: 0.05 mg/kg/injection, schedule: Q01DX001 (ip), vehicle: Klucel (hydroxypropylcellulose) (HPC))?
Its T/C is 196 % of control.

And the T/C (endpoint: median tumor weight change, dose: 0.1 mg/kg/injection, schedule: Q01DX001 (ip), vehicle: Klucel (hydroxypropylcellulose) (HPC))?
The T/C was 203 % of control.

What about the T/C (endpoint: median tumor weight change, dose: 0.2 mg/kg/injection, schedule: Q01DX001 (ip), vehicle: Klucel (hydroxypropylcellulose) (HPC)) of the same molecule?
The T/C was 192 % of control.

How did the T/C (endpoint: median tumor weight change, dose: 62.0 mg/kg/injection, schedule: Q01DX001 (ip), vehicle: Klucel (hydroxypropylcellulose) (HPC)) turn out when `Clc1ccc(C2SC=Cc3ccccc32)cc1` (configuration not stated) was run?
Its T/C is 88 % of control.

What about the T/C [1] of the same molecule?
Its T/C is 50 % of control and 54 % of control and 58 % of control.

Which T/C [10] does the source give for `COC(=O)c1cc2cc(C)c(C)c(C)c2c2ccc(C)cc12` here?
Its T/C is 101 % of control.

For `Clc1ccc(CN2COc3c(ccc4cccnc34)C2)cc1Cl`, which T/C [8] is on record?
The T/C was 113 % of control.

And the T/C [9]?
Its T/C is 65 % of control.

What about the T/C [11] of the same molecule?
The T/C was 66 % of control.

What about the T/C (endpoint: median tumor weight (est.), dose: 400.0 mg/kg/injection, schedule: Q07DX005 (ip), vehicle: saline with Tween-80) of the same molecule?
Its T/C is 96 % of control.

How did the T/C [3] turn out when `COc1cc2c[n+](C)c3c(c2cc1OC)Cc1cc2c(cc1-3)OCO2` was run?
The T/C was 92 % of control.

What about the T/C [5] of the same molecule?
Its T/C is 105 % of control.
